According to US20260042755A1, “GPR6 INVERSE AGONISTS” (MapLight Therapeutics, Inc., priority 2022, published 2026):

Assays:
GPR6 = target: T1, GPR6 (Homo sapiens, UniProt P46095); assay: GPR6 antagonist functional cAMP assay (LANCE Ultra cAMP TR-FRET, CHO cells stably expressing GPR6); assay type: cell-based
T1 construct: expressed in transfected cells; host or cells: CHO cells
In short: (§1)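 We measure cAMP by TR-FRET (665 nm) in cells held in glucose-containing Krebs-Ringer buffer with BSA and a PDE inhibitor, after a 45 min, 37 °C compound incubation. IC50s derive from a four-parameter logistic fit.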

GPR3 = target: T2, GPR3 (Homo sapiens, UniProt P46089); assay: GPR3 antagonist functional cAMP assay (LANCE Ultra cAMP TR-FRET, CHO cells stably expressing GPR3); assay type: cell-based
T2 construct: expressed in transfected cells; host or cells: CHO cells
In short: as §1

[1] = CHO cells stably expressing GPR6, cAMP assay
[2] = CHO cells stably expressing GPR3, cAMP assay
[3] = CHO cells stably expressing GPR6, cAMP assay (Example 24)
[4] = CHO cells stably expressing GPR3, cAMP assay (Example 24)
[5] = procedure as described in Example 24

T2 sequence (P46089 whole entry, species assumed): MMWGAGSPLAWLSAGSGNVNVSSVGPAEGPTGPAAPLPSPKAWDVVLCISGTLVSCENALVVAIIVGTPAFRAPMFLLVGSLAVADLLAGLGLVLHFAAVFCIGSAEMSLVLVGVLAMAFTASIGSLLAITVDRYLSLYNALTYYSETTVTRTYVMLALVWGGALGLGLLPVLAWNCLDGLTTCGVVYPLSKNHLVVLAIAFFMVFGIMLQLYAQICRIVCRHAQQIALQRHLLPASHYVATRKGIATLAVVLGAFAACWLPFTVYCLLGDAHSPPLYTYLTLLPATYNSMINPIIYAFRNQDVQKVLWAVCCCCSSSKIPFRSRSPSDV
T1 sequence (P46095 whole entry): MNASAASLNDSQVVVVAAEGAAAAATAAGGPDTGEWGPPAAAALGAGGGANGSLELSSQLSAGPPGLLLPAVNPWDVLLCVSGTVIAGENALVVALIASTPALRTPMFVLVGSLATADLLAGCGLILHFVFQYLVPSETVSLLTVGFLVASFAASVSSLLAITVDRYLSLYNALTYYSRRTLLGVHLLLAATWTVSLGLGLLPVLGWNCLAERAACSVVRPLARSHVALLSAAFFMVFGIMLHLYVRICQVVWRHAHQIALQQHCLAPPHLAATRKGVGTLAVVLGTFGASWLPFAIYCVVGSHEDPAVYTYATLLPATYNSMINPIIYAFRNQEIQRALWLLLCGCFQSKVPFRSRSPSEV

Row | SMILES | IC50 (GPR6; [3]) | IC50 (GPR3; [4]) | IC50 (GPR6; procedure of Example 24) | IC50 (GPR3; procedure of Example 24) | also measured
1 | CCn1cc(-c2nc3c(nc2N2CCC(Oc4ccc(F)cc4F)CC2)CCN(C(=O)C2COCCN2)C3)cn1 (stereo not drawn) [Compound 491, 3-{2-[4-(2,4-difluorophenoxy)piperidin-1-yl]-3-(1-ethyl-1H-pyrazol-4-yl)-5H,6H,7H,8H-pyrido[3,4-b]pyrazine-6-carbonyl}morpholine] |  |  |  |  | IC50 (GPR6; [1]): < 100 nM; IC50 (GPR3; [2]): 1000 to 30000 nM
2 | CC(C)(O)C(O)c1cc2nc(-c3cnn(C(F)F)c3)c(N3CCN(Cc4ccc(F)cc4F)CC3)nc2cn1 (single isomer, unassigned) [Compound 585] |  |  |  |  | IC50 (GPR6; [1]): < 100 nM; IC50 (GPR3; [2]): 100 to 1000 nM
3 | CC(=O)N1CCc2nc(N3CCC(Oc4cc(Cl)ccc4Cl)CC3)c(-c3cnn(C)c3)nc2C1 [Compound 430, 1-{2-[4-(2,5-dichlorophenoxy)piperidin-1-yl]-3-(1-methyl-1H-pyrazol-4-yl)-5H,6H,7H,8H-pyrido[3,4-b]pyrazin-6-yl}ethan-1-one] | < 100 nM | 100 to 1000 nM |  |  | 
4 | CC(=O)N1CCc2nc(N3CCC(Oc4ccc(F)cc4F)CC3)c(-c3cnc4n3CCN(C(C)=O)C4)nc2C1 [Compound 17, 1-(3-(6-acetyl-2-(4-(2,4-difluorophenoxy)piperidin-1-yl)-5,6,7,8-tetrahydropyrido[3,4-b]pyrazin-3-yl)-5,6-dihydroimidazo[1,2-a]pyrazin-7(8H)-yl)ethan-1-one] |  |  |  |  | IC50 (GPR6; [5]): 1000 to 30000 nM; IC50 (GPR3; [5]): 1000 to 30000 nM
5 | CC(=O)N1CCc2nc(N3CCN(C(c4ccc(F)cc4F)C(F)(F)F)CC3)c(-c3cnn(C)c3)nc2C1 (stereo not drawn) [Compound 731, 1-(2-{4-[1-(2,4-difluorophenyl)-2,2,2-trifluoroethyl]-1-piperazinyl}-3-(1-methyl-4-pyrazolyl)-5,6,7,8-tetrahydro-1,4,6-triaza-6-naphthyl)-1-ethanone] |  |  | 1000 to 30000 nM | ≥ 30000 nM | 
6 | Cn1cc(-c2nc3c(C#N)nccc3nc2N2CCC(Oc3ccc(F)cc3F)CC2)cn1 [Compound 409, 2-[4-(2,4-difluorophenoxy)piperidin-1-yl]-3-(1-methyl-1H-pyrazol-4-yl)pyrido[3,4-b]pyrazine-5-carbonitrile] | 100 to 1000 nM | 100 to 1000 nM |  |  | 
7 | CC(=O)N1CCc2nc(N3CCC(Oc4ccc(F)cc4F)CC3)c(-c3cnn4c3COCC4)nc2C1 [Compound 245, 1-{2-[4-(2,4-difluorophenoxy)piperidin-1-yl]-3-{4H,6H,7H-pyrazolo [3,2-c][1,4]oxazin-3-yl}-5H,6H,7H,8H-pyrido[3,4-b]pyrazin-6-yl}ethan-1-one] | 100 to 1000 nM | 1000 to 30000 nM |  |  | 
8 | CC(=O)N1CCc2nc(N3CCC(Oc4ccc(F)cc4F)CC3)c(-c3cnn(CCC#N)c3)nc2C1 [Compound 73, 3-(4-{6-acetyl-2-[4-(2,4-difluorophenoxy)piperidin-1-yl]-5H,6H,7H,8H-pyrido[3,4-b]pyrazin-3-yl}-1H-pyrazol-1-yl)propanenitrile] | 100 to 1000 nM | 1000 to 30000 nM |  |  | 
9 | CC(=O)N1CCc2nc(N3CCC(Oc4ccc(F)cc4F)CC3)c(-c3cnccn3)nc2C1 [Compound 19, 1-{2-[4-(2,4-difluorophenoxy)piperidin-1-yl]-3-(pyrazin-2-yl)-5H,6H,7H,8H-pyrido[3,4-b]pyrazin-6-yl}ethan-1-one] |  |  |  |  | IC50 (GPR6; [5]): 1000 to 30000 nM; IC50 (GPR3; [5]): 100 to 1000 nM
10 | COCC1CC1c1nc2c(nc1N1CCC(Oc3ccc(F)cc3F)CC1)CCN(C(C)=O)C2 (stereo not drawn) [Compound 463, 1-(2-(4-(2,4-difluorophenoxy)piperidin-1-yl)-3-(2-(methoxymethyl)cyclopropyl)-7,8-dihydropyrido[3,4-b]pyrazin-6(5H)-yl)ethan-1-one] | 100 to 1000 nM | 1000 to 30000 nM |  |  | 
11 | CCn1cc(-c2nc3cnc([C@](C)(O)C(C)(C)O)cc3nc2N2CCC(Oc3ccc(F)cc3F)CC2)cn1 (single isomer, unassigned) [Compound 735] |  |  | 100 to 1000 nM | 1000 to 30000 nM | 
12 | CC(=O)N1Cc2nc(-c3cnn(C)c3)c(N3CCC(Oc4ccc(F)cc4F)CC3)nc2CC1C (single isomer, unassigned) [Compound 446] | 100 to 1000 nM | 1000 to 30000 nM |  |  | 
13 | Cn1cc(-c2nc3cnc(C[C@@H](O)CO)cc3nc2N2CCC(Oc3ccc(F)cc3F)CC2)cn1 (single isomer, unassigned) [Compound 415] | 100 to 1000 nM | 1000 to 30000 nM |  |  | 
14 | CC(C)(O)[C@@H](O)c1cc2nc(-c3cnn(C4CC4)c3)c(N3CCN(Cc4ccccc4F)CC3)nc2cn1 (single isomer, unassigned) [Compound 746] |  |  | 100 to 1000 nM | 1000 to 30000 nM | 
15 | COCC(O)c1cc2nc(N3CCC(Oc4ccc(F)cc4F)CC3)c(-c3cnn(C)c3)nc2cn1 (stereo not drawn) [Compound 437, 1-(2-(4-(2,4-difluorophenoxy)piperidin-1-yl)-3-(1-methyl-1H-pyrazol-4-yl)pyrido[3,4-b]pyrazin-7-yl)-2-methoxyethan-1-ol] | 100 to 1000 nM | 1000 to 30000 nM |  |  | 
16 | CC(=O)N1CCc2nc(N3CCN(Cc4cc(F)cc(F)c4)CC3)c(-c3cnn(C)c3)nc2C1 [Compound 353, 1-(2-{4-[(3,5-difluorophenyl)methyl]piperazin-1-yl}-3-(1-methyl-1H-pyrazol-4-yl)-5H,6H,7H,8H-pyrido[3,4-b]pyrazin-6-yl)ethan-1-one] |  |  | 1000 to 30000 nM | 1000 to 30000 nM | 
17 | CC(C)(O)[C@@H](O)c1cc2nc(N3CCN(Cc4ccccc4F)CC3)c(-c3cnn(C(F)F)c3)nc2cn1 (single isomer, unassigned) [Compound 613] |  |  | 100 to 1000 nM | 1000 to 30000 nM | 
18 | Cn1cc(-c2nc3cnc(C4CNC(=O)O4)cc3nc2N2CCC(Oc3ccc(F)cc3F)CC2)cn1 (stereo not drawn) [Compound 371, 5-(2-(4-(2,4-difluorophenoxy)piperidin-1-yl)-3-(1-methyl-1H-pyrazol-4-yl)pyrido[3,4-b]pyrazin-7-yl)oxazolidin-2-one] |  |  | 100 to 1000 nM | 1000 to 30000 nM | 
19 | CC(=O)N1Cc2nc(-c3cnn(C)c3)c(N3CCC(Oc4ccc(F)cc4F)CC3)nc2CC1CO (stereo not drawn) [Compound 490, 1-{2-[4-(2,4-difluorophenoxy)piperidin-1-yl]-7-(hydroxymethyl)-3-(1-methyl-1H-pyrazol-4-yl)-5H,6H,7H,8H-pyrido[3,4-b]pyrazin-6-yl}ethan-1-one] |  |  |  |  | IC50 (GPR6; [1]): 100 to 1000 nM; IC50 (GPR3; [2]): 1000 to 30000 nM
20 | CC(=O)N1CCc2nc(N3CCC(Cc4ccc(F)cc4F)CC3)c(-c3cnn(C)c3)nc2C1 [Compound 375, 1-(2-{4-[(2,4-difluorophenyl)methyl]piperidin-1-yl}-3-(1-methyl-1H-pyrazol-4-yl)-5H,6H,7H,8H-pyrido[3,4-b]pyrazin-6-yl)ethan-1-one] |  |  | < 100 nM | 100 to 1000 nM | 
21 | O=C(CN1CCOCC1)N1CCc2nc(N3CCC(Oc4ccc(F)cc4F)CC3)c(-c3cnn(C4CCCCO4)c3)nc2C1 (stereo not drawn) [Compound 202, 1-{2-[4-(2,4-difluorophenoxy)piperidin-1-yl]-3-[1-(oxan-2-yl)-1H-pyrazol-4-yl]-5H,6H,7H,8H-pyrido[3,4-b]pyrazin-6-yl}-2-(morpholin-4-yl)ethan-1-one] | 1000 to 30000 nM | 1000 to 30000 nM |  |  | 
22 | CC(=O)N1CCc2nc(N3CCN(C(C)c4ccc(F)cc4F)CC3)c(-c3cnn(C)c3)nc2C1 (stereo not drawn) [Compound 729, 1-(2-{4-[1-(2,4-difluorophenyl)ethyl]-1-piperazinyl}-3-(1-methyl-4-pyrazolyl)-5,6,7,8-tetrahydro-1,4,6-triaza-6-naphthyl)-1-ethanone] |  |  | 1000 to 30000 nM | 1000 to 30000 nM | 
23 | CC(O)C(O)c1cc2nc(N3CCC(Oc4ccc(F)cc4F)CC3)c(-c3cnn(C)c3)nc2cn1 (stereo not drawn) [Compound 401, 1-{2-[4-(2,4-difluorophenoxy)piperidin-1-yl]-3-(1-methyl-1H-pyrazol-4-yl)pyrido[3,4-b]pyrazin-7-yl}propane-1,2-diol] | 100 to 1000 nM | 1000 to 30000 nM |  |  | 
24 | CNC(=O)N1CCc2nc(N3CCC(Oc4ccc(F)cc4F)CC3)c(-c3cnn(C4CCCCO4)c3)nc2C1 (stereo not drawn) [Compound 181, 2-[4-(2,4-difluorophenoxy)piperidin-1-yl]-N-methyl-3-[1-(oxan-2-yl)-1H-pyrazol-4-yl]-5H,6H,7H,8H-pyrido[3,4-b]pyrazine-6-carboxamide] | 1000 to 30000 nM | 1000 to 30000 nM |  |  | 
25 | Cn1cc(-c2nc3cc([C@@H](O)C(C)(C)O)ncc3nc2N2CCC(=Cc3ccc(F)cc3F)CC2)cn1 (single isomer, unassigned) [Compound 763] |  |  | < 100 nM | 100 to 1000 nM | 
26 | CC(=O)N1CCc2nc(N3CCC(Oc4ccc(F)cc4F)CC3)c(-c3cccc(N)n3)nc2C1 [Compound 168, 1-[3-(6-aminopyridin-2-yl)-2-[4-(2,4-difluorophenoxy)piperidin-1-yl]-5H,6H,7H,8H-pyrido[3,4-b]pyrazin-6-yl]ethan-1-one] | < 100 nM | 100 to 1000 nM |  |  | 
27 | CC(=O)N1CCc2nc(N3CCC(Oc4ccc(F)cc4F)CC3)c(-c3cnn4c3CN(C)CC4)nc2C1 [Compound 110, 1-{2-[4-(2,4-difluorophenoxy)piperidin-1-yl]-3-{5-methyl-4H,5H,6H,7H-pyrazolo[1,5-a]pyrazin-3-yl}-5H,6H,7H,8H-pyrido[3,4-b]pyrazin-6-yl}ethan-1-one] | 1000 to 30000 nM | 1000 to 30000 nM |  |  | 
28 | CCn1cc(-c2nc3cnc([C@@H](O)C(C)(C)O)cc3nc2N2CCN(Cc3ccc(F)cc3F)CC2)cn1 (single isomer, unassigned) [Compound 574] |  |  |  |  | IC50 (GPR6; [1]): 100 to 1000 nM; IC50 (GPR3; [2]): 1000 to 30000 nM
29 | COc1ccnc(-c2nc3c(nc2N2CCC(Oc4ccc(F)cc4F)CC2)CCN(C(C)=O)C3)c1 [Compound 7, 1-(2-(4-(2,4-difluorophenoxy)piperidin-1-yl)-3-(4-methoxypyridin-2-yl)-7,8-dihydropyrido[3,4-b]pyrazin-6(5H)-yl)ethan-1-one] |  |  |  |  | IC50 (GPR6; [5]): 1000 to 30000 nM; IC50 (GPR3; [5]): 100 to 1000 nM
30 | N#CN1CCc2nc(N3CCC(Oc4ccc(F)cc4F)CC3)c(-c3ccc(F)c(N)n3)nc2C1 [Compound 671, 6-{6-cyano-2-[4-(2,4-difluorophenoxy)-1-piperidyl]-5,6,7,8-tetrahydro-1,4,6-triaza-3-naphthyl}-3-fluoro-2-pyridylamine] |  |  | < 100 nM | 1000 to 30000 nM | 
